Ten compounds from ChEMBL document CHEMBL1201862, “PubChem BioAssay data set” (2004) can be followed below.

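These data come from cells grown in 96-well plates and exposed to compound for 48 hours at five concentrations. GI50: concentration for 50% inhibition of growth.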 Active and inactive are the calls of the source. Rule as the data show it: active = GI50 up to about 1.1 µM and inactive = higher.

Test systems include SW-620; SNB-19; SNB-75; OVCAR-5; MDA-N; MDA-MB-435; EKVX; ACHN; T47D; U-251; HOP-62; HOP-92; A549; COLO 205; KM12; HCC 2998; TK-10; DU-145; Malme-3M; HL-60.
Common to all, as to assay: DTP human tumour cell line panel, 48 h

What is called GI50 is the concentration that inhibits growth by half. In the case of `CC(C)(C)c1ccc(CN2CCN(C(c3ccccc3)c3ccc(Cl)cc3)CC2)cc1` (stereo unspecified), the GI50 in the assay on SW-620 was > 100 µM (inactive); with SNB-19 it was > 100 µM (inactive); in the assay with SNB-75, > 100 µM (inactive); with OVCAR-5, 60.1 µM (inactive); in the assay with MDA-N it was 49.4 µM (inactive); in the assay on MDA-MB-435 it was 57.9 µM (inactive). Also, the GI50 in the assay with EKVX was 32.1 µM (inactive); in the assay on ACHN, 68.5 µM (inactive); in the assay with T47D it was 24.2 µM (inactive); in the assay with U-251, 45.1 µM (inactive); in the assay on HOP-62, > 100 µM (inactive); in the assay with HOP-92 it was > 100 µM (inactive). The GI50 was 32.5 µM (inactive) in the assay with A549; 38.8 µM (inactive) with COLO 205; 78 µM (inactive) with KM12; 31 µM (inactive) with HCC 2998; > 100 µM (inactive) in the assay with TK-10; > 100 µM (inactive) in the assay with DU-145. Further, in the assay with Malme-3M, the GI50 is 45.6 µM (inactive).

With `O=C1c2cscc2C(=O)c2c(OCc3ccccc3)ccc(OCc3ccccc3)c21`, the GI50 was > 100 µM (inactive) with SW-620; > 100 µM (inactive) in the assay on SNB-19; 56 µM (inactive) in the assay on SNB-75; > 100 µM (inactive) in the assay on OVCAR-5; > 100 µM (inactive) with MDA-N; > 100 µM (inactive) in the assay on MDA-MB-435. The GI50 is > 100 µM (inactive) with EKVX; > 100 µM (inactive) in the assay with ACHN; > 100 µM (inactive) in the assay on T47D; 96.4 µM (inactive) with HL-60; > 100 µM (inactive) in the assay with HOP-62; > 100 µM (inactive) in the assay with HOP-92. Also, the GI50 with A549 was > 100 µM (inactive); with COLO 205, > 100 µM (inactive); in the assay on KM12, > 100 µM (inactive); in the assay on HCC 2998, 53.1 µM (inactive); in the assay with TK-10, > 100 µM (inactive); with DU-145, > 100 µM (inactive). The GI50 with Malme-3M is > 100 µM (inactive).

As for `CC(=O)CC1(CBr)Nc2ccc([N+](=O)[O-])cc2NC1=O` (stereo unspecified), the GI50 in the assay with SW-620 was 28.7 µM (inactive); in the assay on SNB-19 it was > 100 µM (inactive); in the assay on SNB-75 it was > 100 µM (inactive); in the assay on OVCAR-5 it was > 100 µM (inactive); with MDA-N, > 100 µM (inactive); with MDA-MB-435, > 100 µM (inactive). For the same compound, the GI50 is > 100 µM (inactive) with EKVX; > 100 µM (inactive) in the assay on ACHN; 42.9 µM (inactive) in the assay with T47D; > 100 µM (inactive) in the assay with U-251; 83.2 µM (inactive) in the assay with HOP-62; 59.6 µM (inactive) in the assay on HOP-92. Further, the GI50 in the assay on A549 was > 100 µM (inactive); in the assay on COLO 205 it was > 100 µM (inactive); in the assay on KM12 it was 56.2 µM (inactive); in the assay with HCC 2998, > 100 µM (inactive); in the assay with TK-10, 82.2 µM (inactive); in the assay with DU-145, 42.1 µM (inactive). For the same compound, the GI50 with Malme-3M was 92.3 µM (inactive).

As for `CCCCCC(/C=N/Nc1ccccc1)C(O)(C(F)(F)F)C(F)(F)F` (stereo unspecified), the GI50 in the assay on SW-620, with SNB-19, in the assay with SNB-75, with OVCAR-5, in the assay on MDA-N and with MDA-MB-435 was > 100 µM (inactive) each time. Further, the GI50 with EKVX, in the assay with ACHN, with T47D, with HL-60, with U-251 and in the assay with HOP-62 was > 100 µM (inactive) each time. Besides, the GI50 in the assay on HOP-92, in the assay with A549, in the assay on COLO 205, with HCC 2998, in the assay with DU-145 and in the assay on Malme-3M was > 100 µM (inactive) throughout.

As to `CC(=O)Oc1cc(Cl)c(C)c2c1[C@H]1CC[C@]3(C)[C@@H](OC(C)=O)CC[C@H]3[C@@H]1CC2`, the GI50 in the assay with SW-620, with SNB-19, in the assay with SNB-75, in the assay with OVCAR-5, with MDA-N and with MDA-MB-435 was > 100 µM (inactive) each time. For the same compound, the GI50 in the assay on EKVX is > 100 µM (inactive); in the assay with ACHN it was > 100 µM (inactive); in the assay with T47D it was 83.2 µM (inactive); in the assay with HL-60, 53.6 µM (inactive); with U-251, 94.2 µM (inactive); with HOP-62, > 100 µM (inactive). The GI50 in the assay with HOP-92, with A549, in the assay with KM12, in the assay on HCC 2998, with TK-10 and in the assay on DU-145 was > 100 µM (inactive) throughout. For the same compound, the GI50 in the assay with Malme-3M was > 100 µM (inactive).

In the case of `COc1ccc(/C=C2\C[C@H]3[C@@H]4CC=C5C[C@@H](OC(C)=O)CC[C@]5(C)[C@H]4CC[C@]3(C)C2=O)cc1OC`, the GI50 in the assay with SW-620 is > 100 µM (inactive); in the assay on SNB-19, 54.8 µM (inactive); in the assay on SNB-75 it was > 100 µM (inactive); with OVCAR-5, 41 µM (inactive); with MDA-N, 39.9 µM (inactive); in the assay with MDA-MB-435 it was 48.4 µM (inactive). For the same compound, the GI50 with EKVX is 15.7 µM (inactive); in the assay on ACHN it was 49.5 µM (inactive); in the assay with T47D, 35.7 µM (inactive); in the assay with HL-60, 16.7 µM (inactive); in the assay with HOP-62, 0.815 µM (active); with HOP-92 it was 31.7 µM (inactive). For the same compound, the GI50 in the assay with A549 is 28.5 µM (inactive); in the assay with COLO 205, 24.3 µM (inactive); in the assay on KM12, 0.971 µM (active); in the assay on HCC 2998 it was 58.3 µM (inactive); in the assay with DU-145 it was > 100 µM (inactive); in the assay on Malme-3M it was 34.7 µM (inactive).

With `N#CC1C=Cc2ccccc2N1C(=O)Oc1ccccc1` (stereo unspecified), the GI50 was 36.2 µM (inactive) in the assay with SW-620; 74.8 µM (inactive) in the assay on SNB-19; 93.5 µM (inactive) in the assay on SNB-75; > 100 µM (inactive) in the assay on OVCAR-5; 35.4 µM (inactive) in the assay with MDA-N; 23.7 µM (inactive) in the assay with MDA-MB-435. In addition, the GI50 in the assay with EKVX was 42.4 µM (inactive); in the assay on ACHN, 50.2 µM (inactive); in the assay on T47D, 28.2 µM (inactive); in the assay on HL-60, 19.3 µM (inactive); in the assay with U-251 it was 44.1 µM (inactive); with HOP-92 it was 58.6 µM (inactive). Further, the GI50 in the assay with A549 is 49.2 µM (inactive); with COLO 205, 58.7 µM (inactive); in the assay on KM12, 37.2 µM (inactive); with HCC 2998, 40.1 µM (inactive); with TK-10, 44.8 µM (inactive); in the assay on DU-145 it was 31.9 µM (inactive). Besides, the GI50 in the assay with Malme-3M was 48.4 µM (inactive).

In the case of `N#CCC(=O)Nn1c(CC#N)nnc1Cc1ccccc1`, the GI50 with SW-620, in the assay on SNB-19, in the assay on SNB-75, with OVCAR-5, in the assay with MDA-N and in the assay with MDA-MB-435 was > 100 µM (inactive) in each case. Moreover, the GI50 with ACHN, in the assay with T47D, in the assay on HL-60, in the assay on U-251, in the assay with HOP-62 and with HOP-92 was > 100 µM (inactive) in each case. The GI50 with A549, in the assay with KM12, in the assay on HCC 2998, with TK-10, in the assay with DU-145 and in the assay with Malme-3M was > 100 µM (inactive) each time.

For `CCOC(=O)C1C[C@H]2CO[C@H](c3ccccc3)N2C1=O` (stereo partly specified), the GI50 in the assay on SW-620, in the assay on SNB-19, in the assay on SNB-75, with OVCAR-5, in the assay with MDA-N and with MDA-MB-435 was > 100 µM (inactive) each time. The GI50 with EKVX, in the assay on ACHN, with T47D, in the assay with U-251, in the assay with HOP-92 and in the assay on A549 was > 100 µM (inactive) throughout. Further, the GI50 in the assay on COLO 205 was > 100 µM (inactive); in the assay on KM12, > 100 µM (inactive); with HCC 2998, 73.8 µM (inactive); in the assay with TK-10, > 100 µM (inactive); in the assay with DU-145 it was > 100 µM (inactive); in the assay with Malme-3M it was > 100 µM (inactive).

On to `CC[C@H]1C=CCC[C@@]2(C[C@@H]3CC[C@@H]4[C@H](C(=O)OCCCCCCCCCCCCCCCC(=O)O)[C@]5(CCC[C@@H](C)O5)NC(=[N+]34)N2)O1` [CRAMBESCIDIN 657], for which the GI50 in the assay on SW-620 is 0.189 µM (active); with SNB-19, 0.365 µM (active); in the assay on OVCAR-5, 0.221 µM (active); with MDA-N, 0.189 µM (active); in the assay with MDA-MB-435, 0.141 µM (active); with EKVX, 1.39 µM (inactive). The GI50 in the assay on ACHN is 0.175 µM (active); with T47D, 0.32 µM (active); with HL-60, 0.151 µM (active); in the assay on U-251, 0.183 µM (active); in the assay with HOP-62 it was 0.367 µM (active); in the assay with HOP-92, 0.153 µM (active). Moreover, the GI50 in the assay with A549 is 0.164 µM (active); with COLO 205, 0.139 µM (active); with KM12, 0.207 µM (active); in the assay with HCC 2998, 0.0973 µM (active); with TK-10, 0.367 µM (active); in the assay on DU-145, 0.191 µM (active). Further, the GI50 in the assay on Malme-3M is 0.153 µM (active).
